Our source for the MIC values is ChEMBL document CHEMBL3588812, “Thiophene and benzodioxole appended thiazolyl-pyrazoline compounds: Microwave assisted synthesis, antimicrobial and molecular docking studies” (2015).

Activity calls are given as the source filed them. No cut-off for these calls is given here.

The subject of one test is Salmonella typhimurium. Description: Antimicrobial activity against Salmonella typhimurium MTCC 1251 assessed as inhibition of visual microbial growth incubated for 24 hrs at 37 degC. Type of test: functional, Salmonella enterica subsp. enterica serovar Typhimurium. The note with it: Salmonella enterica, MTCC 1251, 24 h.
For a further test, the system named is Klebsiella pneumoniae. Description: Antimicrobial activity against Klebsiella pneumoniae MTCC 109 assessed as inhibition of visual microbial growth incubated for 24 hrs at 37 degC. The class given is functional. The note with it: MTCC 109, 24 h.
For the next test, the system named is Proteus vulgaris. Kind of test: Antimicrobial activity against Proteus vulgaris MTCC 1771 assessed as inhibition of visual microbial growth incubated for 24 hrs at 37 degC. Type of test: functional.
Another test has as its system Shigella flexneri. Description: Antimicrobial activity against Shigella flexneri MTCC 1457 assessed as inhibition of visual microbial growth incubated for 24 hrs at 37 degC. Type of test: functional. The note with it: MTCC 1457, 24 h.
The next test has as its system Micrococcus luteus. Description: Antimicrobial activity against Micrococcus luteus MTCC 106 assessed as inhibition of visual microbial growth incubated for 24 hrs at 37 degC. Type of test: functional. The note with it: MTCC 106, 24 h.
In another test the test system is Klebsiella aerogenes. Kind of test: Antimicrobial activity against Enterobacter aerogenes MTCC 111 assessed as inhibition of visual microbial growth incubated for 24 hrs at 37 degC. The class given is functional. The note with it: MTCC 111, 24 h.
In test [1] the test system is Staphylococcus aureus. Description: Antimicrobial activity against Staphylococcus aureus MTCC 96 assessed as inhibition of visual microbial growth incubated for 24 hrs at 37 degC. The note with it: MTCC 96, 24 h. The class given is functional.
The subject of test [2] is Staphylococcus aureus. Description: Antimicrobial activity against methicillin-resistant Staphylococcus aureus assessed as inhibition of visual microbial growth incubated for 24 hrs at 37 degC. Type of test: functional.
In another test the test system is Candida albicans. Description: Antimicrobial activity against Candida albicans MTCC 227 assessed as inhibition of visual microbial growth incubated for 48 to 72 hrs at 28 degC. Type of test: functional.
The test system of the next test is Malassezia pachydermatis. Description: Antimicrobial activity against Malassezia pachydermatis assessed as inhibition of visual microbial growth incubated for 48 to 72 hrs at 28 degC. The class given is functional.

One may read the MIC as the lowest concentration that inhibits growth of the organism. As to `N#Cc1ccc(-c2csc(N3N=C(c4cccs4)CC3c3ccc4c(c3)OCO4)n2)cc1` (stereo not given), the MIC was 125 µg/mL in the test with Salmonella typhimurium; 250 µg/mL in the test on Klebsiella pneumoniae; 125 µg/mL in the test on Proteus vulgaris (MTCC 1771, 24 h); 250 µg/mL in the test on Shigella flexneri; 125 µg/mL with Micrococcus luteus; 250 µg/mL with Klebsiella aerogenes. Further, the minimum inhibitory concentration (MIC) in the test with Staphylococcus aureus [1] is 125 µg/mL; in the test on Staphylococcus aureus [2], 250 µg/mL; with Candida albicans, 125 µg/mL; in the test on Malassezia pachydermatis, 500 µg/mL.
As to `CC(=O)N1CCN(c2ccc(OCC3COC(Cn4ccnc4)(c4ccc(Cl)cc4Cl)O3)cc2)CC1` (stereo not given) [KETOCONAZOLE], in the test with Candida albicans, the MIC was 25 µg/mL.
For the molecule `Fc1ccccc1-c1csc(N2N=C(c3cccs3)CC2c2cc3c(cc2Br)OCO3)n1` (stereo not given), the MIC in the test on Salmonella typhimurium is 125 µg/mL; with Klebsiella pneumoniae it was 250 µg/mL; in the test on Proteus vulgaris (MTCC 1771, 24 h) it was 500 µg/mL; with Shigella flexneri it was 250 µg/mL; in the test with Micrococcus luteus it was 125 µg/mL; with Klebsiella aerogenes it was 250 µg/mL. In addition, the MIC in the test on Staphylococcus aureus [1] came to 250 µg/mL; in the test on Staphylococcus aureus [2], 250 µg/mL; in the test with Candida albicans, 125 µg/mL; in the test with Malassezia pachydermatis it was 500 µg/mL.
As to `Fc1cc(Cl)ccc1-c1csc(N2N=C(c3cccs3)CC2c2ccc3c(c2)OCO3)n1` (stereo not given), the minimum inhibitory concentration (MIC) in the test on Salmonella typhimurium amounted to 125 µg/mL; with Klebsiella pneumoniae it was 125 µg/mL; in the test on Proteus vulgaris (MTCC 1771, 24 h) it was 500 µg/mL; in the test on Shigella flexneri it was 125 µg/mL; with Micrococcus luteus, 250 µg/mL; with Klebsiella aerogenes, 250 µg/mL. Also, the MIC in the test on Staphylococcus aureus [1] worked out at 250 µg/mL; with Staphylococcus aureus [2] it was 125 µg/mL; in the test on Candida albicans it was 250 µg/mL; in the test on Malassezia pachydermatis, 250 µg/mL.
For the molecule `N#Cc1cccc(-c2csc(N3N=C(c4cccs4)CC3c3ccc4c(c3)OCO4)n2)c1` (stereo not given), the MIC in the test on Salmonella typhimurium came to 62.5 µg/mL; in the test with Klebsiella pneumoniae, 62.5 µg/mL; in the test with Proteus vulgaris (MTCC 1771, 24 h), 250 µg/mL; in the test with Shigella flexneri, 125 µg/mL; with Micrococcus luteus, 31.2 µg/mL; with Klebsiella aerogenes it was 125 µg/mL. The MIC was found to be 31.2 µg/mL in the test on Staphylococcus aureus [1], 62.5 µg/mL in the test with Staphylococcus aureus [2], 125 µg/mL in the test on Candida albicans and 250 µg/mL in the test on Malassezia pachydermatis.
As to `CN[C@@H]1[C@H](O[C@H]2[C@H](O[C@H]3[C@H](O)[C@@H](O)[C@H](N=C(N)N)[C@@H](O)[C@@H]3N=C(N)N)O[C@@H](C)[C@]2(O)C=O)O[C@@H](CO)[C@H](O)[C@H]1O` [STREPTOMYCIN], the MIC stood at 30 µg/mL in the test on Salmonella typhimurium; 6.25 µg/mL in the test with Klebsiella pneumoniae; 6.25 µg/mL in the test with Shigella flexneri; 6.25 µg/mL with Micrococcus luteus; 25 µg/mL with Klebsiella aerogenes; 6.25 µg/mL with Staphylococcus aureus [1]. Further, the MIC in the test with Staphylococcus aureus [2] is 6.25 µg/mL.
Regarding `Cc1ccc(-c2csc(N3N=C(c4cccs4)CC3c3cc4c(cc3Br)OCO4)n2)cc1` (stereo not given), the minimal inhibitory concentration (MIC) with Salmonella typhimurium is 62.5 µg/mL; in the test with Klebsiella pneumoniae, 62.5 µg/mL; in the test with Proteus vulgaris (MTCC 1771, 24 h) it was 125 µg/mL; in the test on Shigella flexneri, 125 µg/mL; in the test on Micrococcus luteus, 62.5 µg/mL; in the test on Klebsiella aerogenes, 125 µg/mL. Also, the MIC with Staphylococcus aureus [1] is 62.5 µg/mL; in the test on Staphylococcus aureus [2], 250 µg/mL; in the test on Candida albicans it was 125 µg/mL; in the test on Malassezia pachydermatis it was 250 µg/mL.
In the case of `Brc1cc2c(cc1C1CC(c3cccs3)=NN1c1nc(-c3ccccc3)cs1)OCO2` (stereo not given), the MIC was 125 µg/mL in the test on Salmonella typhimurium; 250 µg/mL with Klebsiella pneumoniae; 62.5 µg/mL with Proteus vulgaris (MTCC 1771, 24 h); 250 µg/mL in the test on Shigella flexneri; 125 µg/mL in the test on Micrococcus luteus; 62.5 µg/mL in the test on Klebsiella aerogenes. Besides, the MIC is 125 µg/mL with Staphylococcus aureus [1], 250 µg/mL in the test with Staphylococcus aureus [2], 125 µg/mL with Candida albicans and 125 µg/mL with Malassezia pachydermatis.
In the case of `O=[N+]([O-])c1ccc(-c2csc(N3N=C(c4cccs4)CC3c3ccc4c(c3)OCO4)n2)cc1` (stereo not given), the MIC in the test on Salmonella typhimurium was 500 µg/mL; in the test on Klebsiella pneumoniae it was 500 µg/mL; in the test with Shigella flexneri, 500 µg/mL; with Micrococcus luteus it was 250 µg/mL; with Klebsiella aerogenes it was 500 µg/mL; with Staphylococcus aureus [1], 500 µg/mL. The MIC in the test with Candida albicans came to 250 µg/mL; in the test with Malassezia pachydermatis it was 500 µg/mL. Also, the MIC entry in the test with Proteus vulgaris and with Staphylococcus aureus [2] was “inactive” each time.
As to GENTAMICIN, in the test on Proteus vulgaris, the MIC was 32 µg/mL.
For `OC(Cn1cncn1)(Cn1cncn1)c1ccc(F)cc1F` [FLUCONAZOLE], the MIC in the test on Malassezia pachydermatis came out at 24 µg/mL.
